How the values were obtained:
HeLa cells [1] = test: Fas induced killing of HeLa cells treated with pharmacological agents, count of viable trypan blue excluding cells; assay type: cell-based, human; details: for effect on Fas induced PCD of HeLa cells, in words (viable cell count): anti-Fas antibody treated HeLa cells, NAC: 50 ng/ml anti-Fas, 5 days, FIG. 6, 8E, 8G, 8H
Description: HeLa cells, 1.6×10^5 cells/well were plated in 6 wells plates. 20-24 hours later cells were treated with various concentrations of sulfinpyrazone (Sigma/Aldrich) in 1% DMSO for 15 minutes prior to the addition of 200 ng/ml anti-Fas antibody (clone CH-11, Kamiya Biomedical Company). The number of viable, trypan blue (Gibco/BRL) excluding cells that remained attached to the plate following rinsing with PBS was counted 17 hours post treatment. […]

[2] = biological target: Fas/CD95/Apo-1 on HeLa cells (human) (UniProt P25445); test: cell-based or functional assay
HeLa cells [3] = test: Apoptotic index (DAPI staining) of HeLa cells treated with anti-Fas antibody; assay type: cell-based, human
Description: To generate HeLa cells that over-express Nrf2, the human Nrf2 cDNA (Moi et al. 1994) was cloned into the retrovirus expression vector pBABEpuro (Morgenstern and Land 1990) by standard methods. The plasmid was transiently transfected into […] and virus was collected at 36, 48, 60 and 72 hours post transfection. At each time point, freshly collected virus stock was filtered through a […], mixed with […] polybrene (Sigma/Aldrich) and applied to HeLa cells. 24 hours after the last addition of the virus, the cells were subjected to selection in […] Puromycin (Sigma/Aldrich). The pool of Puromycin resistant colonies was expanded. […] Apoptotic index was calculated as the ratio of number of dead cells (containing condensed and/or fragmented chromosomes) to the total number of cells. Average apoptotic index calculated from ten fields from duplicate wells is presented.
For bioassays, HeLa cells, at 8.3×10^4 cells/well were plated in 12 wells plates. […] 20 hours later the apoptotic index of treated cells was determined as described for the Nrf2 bioassays.
HeLa cells, 1.6×10^5 cells/well were plated in 6 wells plates. […] The number of viable, trypan blue (Gibco/BRL) excluding cells that remained attached to the plate following rinsing with PBS was counted 17 hours post treatment. Alternatively, the apoptotic index of treated cells was determined as described for the Nrf2 bioassays.

Chain of UniProt P25445 (P25445 26-335): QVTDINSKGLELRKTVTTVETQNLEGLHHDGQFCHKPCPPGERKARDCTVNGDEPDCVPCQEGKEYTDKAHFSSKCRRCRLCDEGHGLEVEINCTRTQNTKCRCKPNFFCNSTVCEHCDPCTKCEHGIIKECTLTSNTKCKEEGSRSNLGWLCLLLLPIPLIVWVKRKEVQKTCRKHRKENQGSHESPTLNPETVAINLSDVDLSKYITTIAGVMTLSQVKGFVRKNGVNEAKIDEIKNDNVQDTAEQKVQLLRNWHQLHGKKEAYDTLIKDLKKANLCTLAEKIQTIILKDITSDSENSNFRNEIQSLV

For `CC(=O)N[C@@H](CS)C(=O)O` [NAC, N-acetyl Cysteine], the “effect on Fas induced PCD of HeLa cells, in words (viable cell count)” value (“effect on Fas induced PCD … (viable cell count)” below) (HeLa cells [1]) was “strongly protects” and the “effect on Fas induced PCD … (viable cell count)” value (HeLa cells [1]; listed as N-acetyl cysteine) was “protects”.
In the case of `O=C1C(CC[S+]([O-])c2ccccc2)C(=O)N(c2ccccc2)N1c1ccccc1` (stereo not shown) [sulfinpyrazone], the “sensitization to Fas induced killing compared to treatment with vehicle alone” value (HeLa cells [1]; 2 mM sulfinpyrazone, 200 ng/ml anti-Fas antibody, counted 17 hours post treatment, FIG. 8G) is reported as “approximately 4 fold”.
With `NCCNS(=O)(=O)c1ccc(Cl)c2ccncc12` [CKI-7, N-(2-aminoethyl)-5-chloroisoquinoline-8-sulfonamide] the “fold more sensitive to FAS induced PCD than the untreated cells” value (HeLa cells [1]; CKI-7 in 1% DMSO added an hour before 200 ng/ml anti-FAS antibody, counted 17 hours post treatment, FIG. 6) was 3.9 fold and the “effect on Fas induced PCD … (viable cell count)” value (HeLa cells [1]) was “sensitizes”.
Molecule “Anti-Fas antibody (clone CH-11, Kamiya Biomedical Company, catalog number MC-060)” has an apoptotic index (DAPI staining), HeLa cells infected with vector alone (Control-1) [2] of 89%, an apoptotic index (DAPI staining), HeLa cells infected with vector alone (Control-2) [2] of 87% and an apoptotic index (DAPI staining), HeLa cells with vehicle [2] of 25%. The apoptotic index (DAPI staining), HeLa cells with vehicle (0 uM Dicumarol) [2] was 25%.
With `O=c1oc2ccccc2c(O)c1Cc1c(O)c2ccccc2oc1=O` [Dicumarol] the “fold more sensitive to Fas induced killing compared to cells treated with vehicle, measured by the number of viable cells” value (HeLa cells [1]; 100 uM Dicumarol, 200 ng/ml anti-Fas antibody, counted 17 hours post treatment, FIG. 8E) was 2.8 fold, the “effect on Fas induced PCD … (viable cell count)” value (HeLa cells [1]) was “sensitizes” and the “killing (apoptotic index) in cells treated with anti-Fas antibody and Dicumarol” value (HeLa cells [3]; 100 uM Dicumarol, 200 ng/ml anti-Fas antibody, vehicle (0 uM) approximately 25%, FIG. 8F) was “approximately 100%”. The “effect on Fas induced PCD of HeLa cells, in words (apoptotic index)” value (HeLa cells [3]; anti-Fas antibody treated HeLa cells, FIG. 8C, 8D, 8F legends) was “sensitizes”.

— patent publication US20020182694A1, “Novel gene and polypeptide which opposes the Fas pathway” (priority 2001, published 2002)
